# Experimental data: patent publication US6576662B2, “Compounds having anticancer activity : process for their preparation and pharmaceutical compositions containing them” (Dr. Reddy's Laboratories Limited, priority 2000, dated 2003)
# Tested on: not given
# Assay: not given
# Details: not given
row,melting point,SMILES
1,105 °C,"C=C1CCC2[C@](C)(CO)[C@H](O)CC[C@]2(C)[C@H]1CC(Sc1ccccc1)C1=CCOC1=O (stereo partly drawn) [Example 63, 14-Deoxy-12-phenylthio andrographolide]"
2,186 °C,C=C1CCC2[C@](C)(CO)[C@H](O)CC[C@]2(C)[C@H]1CC([Se]c1ccccc1)C1=CCOC1=O (stereo partly drawn)
3,225 to 230 °C,"C=C1CCC2[C@](C)(CO)C(O)CC[C@]2(C)[C@H]1CC(Nc1ccc(OC)c(OC)c1)C1=CCOC1=O (stereo partly drawn) [Example 37, 14-Deoxy-12-(3,4-dimethoxyanilino)andrographolide]"
4,122.5 to 125 °C,"C=C1CCC2[C@]3(C)COC(C)(c4ccccc4)OC3CC[C@]2(C)[C@H]1CC(SCC)C1=CCOC1=O (stereo partly drawn) [Example 68, 14-Deoxy-3,19-O-(1-phenylethylidene)-12-ethylthio andrographolide]"
5,74 to 76 °C,"C=C1CCC2[C@]3(C)COC(c4ccccc4)OC3CC[C@]2(C)[C@H]1CC(Sc1ccccc1)C1=CCOC1=O (stereo partly drawn) [Example 69, 3,19-O-Benzylidene-14-deoxy-12-phenylthio andrographolide]"
6,154.1 °C,"C=C1CCC2[C@]3(C)COC(C)(c4ccccc4)OC3CC[C@]2(C)[C@H]1CC(Sc1ccccc1)C1=CCOC1=O (stereo partly drawn) [Example 67, 14-Deoxy-3,19-O-(1-phenylethylidene)-12-phenylthio andrographolide]"
7,164 °C,"C=C1CCC2[C@](C)(CO)[C@H](O)CC[C@]2(C)[C@H]1CC(C1=CCOC1=O)n1ccc(=O)[nH]c1=O (stereo partly drawn) [Example 50, 14-Deoxy-12-(N^1-uracil)andrographolide]"
8,192.5 °C,"C=C1CCC2[C@]3(C)COC(C)(C)OC3CC[C@]2(C)[C@H]1CC(Nc1cccc(C)c1C)C1=CCOC1=O (stereo partly drawn) [Example 38, 14-Deoxy-3,19-O-isopropylidene-12-(2,3-dimethylanilino)andrographolide]"
9,187 to 188 °C,"C=C1CCC2[C@](C)(CO)[C@H](O)CC[C@]2(C)[C@H]1CC(C1=CCOC1=O)n1cc(I)c(=O)[nH]c1=O (stereo partly drawn) [Example 53, 14-Deoxy-12-[N^1-(5-iodouracil)]andrographolide]"
10,57 °C,"C=C1CCC2[C@]3(C)COC(C)(C)OC3CC[C@]2(C)[C@H]1CC(NC(Cc1ccccc1)C(=O)OC)C1=CCOC1=O (stereo partly drawn) [Example 20, 14-Deoxy-3,19-O-isopropylidene-12-(methylphenylalanino)andrographolide]"
11,68 °C,"C=C1CCC2[C@](C)(CO)C(O)CC[C@]2(C)[C@H]1CC(NC(C(=O)OC)c1ccccc1)C1=CCOC1=O (stereo partly drawn) [Example 19, 14-Deoxy-12-(O-methylphenylglycino)andrographolide]"
12,172 to 173 °C,"C=C1CCC2[C@]3(C)COC(c4ccccc4)OC3CC[C@]2(C)[C@H]1CC(NCc1ccccc1)C1=CCOC1=O (stereo partly drawn) [Example 24, 3,19-O-Benzylidene-12-(N-benzylamino)-14-deoxy andrographolide]"
13,118 °C,"C=C1CCC2[C@]3(C)COC(c4ccccc4)OC3CC[C@]2(C)[C@H]1CC(Nc1cccc(C)c1C)C1=CCOC1=O (stereo partly drawn) [Example 40, 3,19-O-Benzylidene-14-deoxy-12-(2,3-dimethylanilino)andrographolide]"
14,91 °C,"C=C1CCC2[C@]3(C)COC(C)(c4ccccc4)OC3CC[C@]2(C)[C@H]1CC(NC(C(=O)OC)c1ccccc1)C1=CCOC1=O (stereo partly drawn) [Example 2, 14-Deoxy-12-(O-methylphenylglycino)-3,19-O-(1-phenylethylidene) androgrpaholide]"
15,80 °C,"CCC(=O)OC[C@@]1(C)C2CC[C@]3(CO3)[C@H](CC(OC(=O)CNC(=O)OC(C)(C)C)C3=CCOC3=O)[C@@]2(C)CC[C@H]1OC(=O)CC (stereo partly drawn) [Example 77, 12-(N-Bocglycinyloxy)-14-deoxy-8,17-epoxy-3,19-dipropionyl andrographolide]"
16,90 °C,"C[C@]1(CO)C2CC[C@]3(CO3)[C@H](CC(Sc3ccccc3)C3=CCOC3=O)[C@@]2(C)CC[C@H]1O (stereo partly drawn) [Example 54, 14-Deoxy-8,17-epoxy-12-phenylthio andrographolide]"
17,185 °C,"C=C1CCC2[C@](C)(CO)[C@H](O)CC[C@]2(C)[C@H]1CC(C1=CCOC1=O)n1cc(Br)c(=O)[nH]c1=O (stereo partly drawn) [Example 52, 14-Deoxy-12-[N^1-(5-bromouracil)]andrographolide]"
18,160 °C,"C=C1CCC2[C@](C)(CO)[C@H](O)CC[C@]2(C)[C@H]1CC(SCC)C1=CCOC1=O (stereo partly drawn) [Example 64, 14-Deoxy-12-ethylthio andrographolide]"
19,163 °C,"C=C1CCC2[C@](C)(CO)[C@H](O)CC[C@]2(C)[C@H]1CC(Nc1cc[nH]c(=O)n1)C1=CCOC1=O (stereo partly drawn) [Example 49, 14-Deoxy-12-[N-(1,2-dihydro-2-pyrimidinone)amino]andrographolide]"

row,SMILES,melting point
1,"C=C1CCC2[C@](C)(COC(C)=O)C(OC(C)=O)CC[C@]2(C)[C@H]1CC(OC(C)=O)C1=CCOC1=O (stereo partly drawn) [Example 74, 12-Acetoxy-3,19-diacetyl-14-deoxy andrographolide]",152.7 °C

# Tested on: Human lymphocytes
# Assay: Lymphocyte proliferation, tritiated thymidine incorporation
# Format: cell-based
# Details: Concentration 1 μM; human lymphocytes with Phytohemagglutitin A
# Protocol: Human lymphocytes were isolated from whole blood by using Ficoll Hypaque Plus (Amersham). On day one, 1 million lymphocytes were seeded into each well of 96 well plate in 100 μL volume of RPMI 1640 medium containing 10% FCS and Phytohemagglutitin A at 1 μg/well concentration. Plates were incubated at 37° C. in CO2 incubator for 24 h. Test compounds at various concentrations were added to test wells and only medium with vehicle was added to control wells. After 48 h of incubation […] of tritiated thymidine was added to each well. After 24 h of thymidine addition the cells were harvested and the incorporated radioactivity was determined. Stimulation Index (SI) was calculated using the formula, [formula]
# A^T=Average CPM of treated wells,
# A^C=Average CPM of control wells.
row,SMILES,Stimulation Index (SI)
1,"C=C1CCC2[C@](C)(CO)[C@H](O)CC[C@]2(C)[C@H]1CC(Sc1ccccc1)C1=CCOC1=O (stereo partly drawn) [Example 63, 14-Deoxy-12-phenylthio andrographolide]",59
2,"C=C1CCC2C(C)(COC(C)=O)C(OC(C)=O)CCC2(C)C1CC(NC(CC[Se]C)C(=O)OC)C1=CCOC1=O (stereo not drawn) [Example 12, 3,19-Diacetyl-14-deoxy-12-(O-methylselenomethionino)andrographolide]",40
3,"C=C1CCC2[C@](C)(CO)[C@H](O)CC[C@]2(C)[C@H]1CC(Nc1cccc(C)c1C)C1=CCOC1=O (stereo partly drawn) [Example 28, 1-(2,3-Dimethylanilino)-14-deoxy andrographolide]",40
4,"C=C1CCC2C(C)(COC(C)=O)C(OC(C)=O)CCC2(C)C1CC(NC(Cc1ccccc1)C(=O)OC)C1=CCOC1=O (stereo not drawn) [Example 6, 3,19-Diacetyl-14-deoxy-12-(O-methylphenylalano)andrographolide]",92
